Data taken from patent US11498899B2, “Nitrone herbicides” (FMC Corporation, priority 2016, dated 2022).

Assays:
rice (Oryza sativa) = experiment: Test B flooded paddy test, visual rating 0-100 (0 no effect, 100 complete control); settings: Flood, 250 g ai/ha, applied to paddy water, rated after 13 to 15 days
[1] = system: ducksalad (Heteranthera limosa); experiment: Test B flooded paddy test, visual rating 0-100; settings: Flood, 250 g ai/ha, applied to paddy water, rated after 13 to 15 days
kochia (Kochia scoparia) [2] = experiment: Test A preemergence, visual injury rating 0-100; type: in vivo; settings: for Kochia plant response rating: 0 to 100 scale
[3] = system: pigweed (Amaranthus retroflexus); experiment: Test A preemergence, visual injury rating 0-100; type: in vivo; settings: for Pigweed plant response rating: 0 to 100 scale
[4] = system: ragweed (common ragweed, Ambrosia elatior); experiment: Test A preemergence, visual injury rating 0-100; type: in vivo; settings: for Ragweed plant response rating: 0 to 100 scale
[5] = system: ryegrass, Italian (Italian ryegrass, Lolium multiflorum); experiment: Test A preemergence, visual injury rating 0-100; type: in vivo; settings: for Ryegrass, Italian plant response rating: 0 to 100 scale
[6] = system: foxtail, green (green foxtail, Setaria viridis); experiment: Test A preemergence, visual injury rating 0-100; type: in vivo; settings: for Foxtail, Green plant response rating: 0 to 100 scale
[7] = system: barnyardgrass (Echinochloa crus-galli); experiment: Test B flooded paddy test, visual rating 0-100; settings: Flood, 250 g ai/ha, applied to paddy water, rated after 13 to 15 days
kochia (Kochia scoparia) [8] = experiment: Test A postemergence, visual injury rating 0-100; type: in vivo; settings: 0 to 100 scale
[9] = system: pigweed (Amaranthus retroflexus); experiment: Test A postemergence, visual injury rating 0-100; type: in vivo; settings: 0 to 100 scale
[10] = system: blackgrass (Alopecurus myosuroides); experiment: Test A postemergence, visual injury rating 0-100; type: in vivo; settings: 0 to 100 scale
[11] = system: barnyardgrass (Echinochloa crus-galli); experiment: Test A postemergence, visual injury rating 0-100; type: in vivo; settings: 0 to 100 scale
corn (Zea mays) = experiment: Test A postemergence, visual injury rating 0-100; type: in vivo; settings: 0 to 100 scale
[12] = system: wheat (Triticum aestivum); experiment: Test A postemergence, visual injury rating 0-100; type: in vivo; settings: 0 to 100 scale
[13] = system: ragweed (common ragweed, Ambrosia elatior); experiment: Test A postemergence, visual injury rating 0-100; type: in vivo; settings: 0 to 100 scale
[14] = system: ryegrass, Italian (Italian ryegrass, Lolium multiflorum); experiment: Test A postemergence, visual injury rating 0-100; type: in vivo; settings: 0 to 100 scale
[15] = system: foxtail, green (green foxtail, Setaria viridis); experiment: Test A postemergence, visual injury rating 0-100; type: in vivo; settings: 0 to 100 scale
[16] = system: barnyardgrass (Echinochloa crus-galli); experiment: Test A preemergence, visual injury rating 0-100 (0 no effect, 100 complete control); type: in vivo; settings: for Barnyardgrass plant response rating (0 to 100 scale): 125 g ai/ha; for Barnyardgrass plant response rating: 500 g ai/ha, 0 to 100 scale

SMILES | Rice plant response rating (0 to 100 scale) (rice (Oryza sativa)) | Ducksalad plant response rating (0 to 100 scale) [1] | Kochia plant response rating (0 to 100 scale) (kochia (Kochia scoparia) [2]; 125 g ai/ha) | Pigweed plant response rating (0 to 100 scale) ([3]; 125 g ai/ha) | Ragweed plant response rating (0 to 100 scale) ([4]; 125 g ai/ha) | Ryegrass, Italian plant response rating (0 to 100 scale) ([5]; 125 g ai/ha) | Foxtail, Green plant response rating (0 to 100 scale) ([6]; 125 g ai/ha) | Barnyardgrass plant response rating (0 to 100 scale) [7] | Kochia plant response rating (kochia (Kochia scoparia) [8]; 125 g ai/ha) | Kochia plant response rating (kochia (Kochia scoparia) [8]; 500 g ai/ha) | Pigweed plant response rating ([9]; 125 g ai/ha) | Pigweed plant response rating ([9]; 500 g ai/ha) | Blackgrass plant response rating ([10]; 125 g ai/ha) | Blackgrass plant response rating ([10]; 500 g ai/ha) | Barnyardgrass plant response rating ([11]; 125 g ai/ha) | Barnyardgrass plant response rating ([11]; 500 g ai/ha) | Corn plant response rating (corn (Zea mays); 125 g ai/ha) | Corn plant response rating (corn (Zea mays); 500 g ai/ha) | Wheat plant response rating ([12]; 125 g ai/ha) | Wheat plant response rating ([12]; 500 g ai/ha) | also measured
CC1=[N+]([O-])[C@H](C(=O)Nc2ccc(F)nc2F)[C@@H](c2ccc(C(F)(F)F)cc2)C1 (relative stereo) [Compound 37, rel-(2S,3R)—N-(2,6-Difluoro-3-pyridinyl)-3,4-dihydro-5-methyl-3-[4-(trifluoromethyl)phenyl]-2H-pyrrole-2-carboxamide 1-oxide] | 0 | 100 | 70 | 80 | 90 | 0 | 90 | 45 | 10 | 70 | 0 | 70 | 20 | 90 | 40 | 70 | 20 | 50 | 10 | 60 | Kochia plant response rating (0 to 100 scale) (kochia (Kochia scoparia) [2]; 500 g ai/ha): 90; Pigweed plant response rating (0 to 100 scale) ([3]; 500 g ai/ha): 100; Ragweed plant response rating (0 to 100 scale) ([4]; 500 g ai/ha): 100; Ryegrass, Italian plant response rating (0 to 100 scale) ([5]; 500 g ai/ha): 0; Foxtail, Green plant response rating (0 to 100 scale) ([6]; 500 g ai/ha): 100; Ragweed plant response rating ([13]; 125 g ai/ha): 0; Ragweed plant response rating ([13]; 500 g ai/ha): 60; Ryegrass, Italian plant response rating ([14]; 125 g ai/ha): 0; Ryegrass, Italian plant response rating ([14]; 500 g ai/ha): 40; Foxtail, Green plant response rating ([15]; 125 g ai/ha): 60; Foxtail, Green plant response rating ([15]; 500 g ai/ha): 90; Barnyardgrass plant response rating (0 to 100 scale) [16]: 90; Barnyardgrass plant response rating [16]: 100
CC1=[N+]([O-])C(C(=O)Nc2cccc(F)c2F)C(c2cccc(C#N)c2)C1 (racemic) [Compound 23] | 0 | 60 | 20 | 0 | 50 | 0 | 80 | 50 | 0 | 20 | 0 | 0 | 0 | 0 | 70 | 80 | 0 | 0 | 20 | 50 | Kochia plant response rating (kochia (Kochia scoparia) [2]; 500 g ai/ha): 50; Pigweed plant response rating ([3]; 500 g ai/ha): 0; Ragweed plant response rating ([4]; 500 g ai/ha): 80; Ryegrass, Italian plant response rating ([5]; 500 g ai/ha): 0; Foxtail, Green plant response rating ([6]; 500 g ai/ha): 90; Ragweed plant response rating ([13]; 125 g ai/ha): 0; Ragweed plant response rating ([13]; 500 g ai/ha): 0; Ryegrass, Italian plant response rating ([14]; 125 g ai/ha): 0; Ryegrass, Italian plant response rating ([14]; 500 g ai/ha): 20; Foxtail, Green plant response rating ([15]; 125 g ai/ha): 30; Foxtail, Green plant response rating ([15]; 500 g ai/ha): 80; Barnyardgrass plant response rating (0 to 100 scale) [16]: 60; Barnyardgrass plant response rating [16]: 90
CC1=[N+]([O-])C(C(=O)Nc2ccncc2C(F)(F)F)C(c2ccc(C(F)(F)F)cc2)C1 (racemic) [Compound 36] | 0 | 0 | 0 | 0 | 0 | 10 | 0 | 30 | 0 | 0 | 0 | 0 | 20 | 20 | 0 | 0 | 20 | 0 | 0 | 0 | Kochia plant response rating (0 to 100 scale) (kochia (Kochia scoparia) [2]; 500 g ai/ha): 90; Pigweed plant response rating (0 to 100 scale) ([3]; 500 g ai/ha): 60; Ragweed plant response rating (0 to 100 scale) ([4]; 500 g ai/ha): 80; Ryegrass, Italian plant response rating (0 to 100 scale) ([5]; 500 g ai/ha): 60; Foxtail, Green plant response rating (0 to 100 scale) ([6]; 500 g ai/ha): 100; Ragweed plant response rating ([13]; 125 g ai/ha): 0; Ragweed plant response rating ([13]; 500 g ai/ha): 0; Ryegrass, Italian plant response rating ([14]; 500 g ai/ha): 20; Foxtail, Green plant response rating ([15]; 125 g ai/ha): 0; Foxtail, Green plant response rating ([15]; 500 g ai/ha): 20; Barnyardgrass plant response rating (0 to 100 scale) [16]: 70; Barnyardgrass plant response rating [16]: 60
CC1=[N+]([O-])C(C(=O)Nc2ccc(F)c(F)c2F)C(c2ccc(C(F)(F)F)cc2)C1 (racemic) [Compound 38] | 0 | 65 | 0 | 30 | 30 | 30 | 100 | 60 | 0 | 0 | 0 | 30 | 40 | 70 | 90 | 60 | 20 | 70 | 30 | 60 | Kochia plant response rating (0 to 100 scale) (kochia (Kochia scoparia) [2]; 500 g ai/ha): 90; Pigweed plant response rating (0 to 100 scale) ([3]; 500 g ai/ha): 80; Ragweed plant response rating (0 to 100 scale) ([4]; 500 g ai/ha): 90; Ryegrass, Italian plant response rating (0 to 100 scale) ([5]; 500 g ai/ha): 50; Foxtail, Green plant response rating (0 to 100 scale) ([6]; 500 g ai/ha): 100; Ragweed plant response rating ([13]; 125 g ai/ha): 0; Ragweed plant response rating ([13]; 500 g ai/ha): 20; Ryegrass, Italian plant response rating ([14]; 125 g ai/ha): 30; Ryegrass, Italian plant response rating ([14]; 500 g ai/ha): 20; Foxtail, Green plant response rating ([15]; 125 g ai/ha): 70; Foxtail, Green plant response rating ([15]; 500 g ai/ha): 90; Barnyardgrass plant response rating (0 to 100 scale) [16]: 90; Barnyardgrass plant response rating [16]: 100
CC1=[N+]([O-])C(C(=O)Nc2cccc(F)c2F)C(c2ccc(C#N)cc2)C1 (racemic) [Compound 22] | 30 | 40 | 0 | 0 | 70 | 0 | 40 | 0 | 0 | 30 | 0 | 20 | 0 | 30 | 0 | 60 | 0 | 0 | 0 | 0 | Kochia plant response rating (kochia (Kochia scoparia) [2]; 500 g ai/ha): 20; Pigweed plant response rating ([3]; 500 g ai/ha): 20; Ragweed plant response rating ([4]; 500 g ai/ha): 30; Ryegrass, Italian plant response rating ([5]; 500 g ai/ha): 0; Foxtail, Green plant response rating ([6]; 500 g ai/ha): 70; Ragweed plant response rating ([13]; 125 g ai/ha): 0; Ragweed plant response rating ([13]; 500 g ai/ha): 0; Ryegrass, Italian plant response rating ([14]; 125 g ai/ha): 0; Ryegrass, Italian plant response rating ([14]; 500 g ai/ha): 0; Foxtail, Green plant response rating ([15]; 125 g ai/ha): 0; Foxtail, Green plant response rating ([15]; 500 g ai/ha): 50; Barnyardgrass plant response rating (0 to 100 scale) [16]: 20; Barnyardgrass plant response rating [16]: 80
